Measured values as given in patent publication US10457707B2, “Substituted urea depsipeptide analogs as activators of the CLPP endopeptidase” (priority 2015, dated 2019).
*1 amine or outer side, *2 acyl side, *3 side chain or, on linkers, in order; H or OH if unused. Where a SMILES comes first, the peptide text is derived from it. Bridges are numbered along the chain shown (N, C = ends). [ ]: non-standard residue; d: D form. The star is where a group is joined. Phe(3,5-F2) = N[C@@H](Cc1cc(F)cc(F)c1)C(=O)O; NMepT = CN[C@H](C(=O)O)[C@@H](C)OP(=O)(O)O; NH(4-OCF3-phenyl) = FC(F)(F)Oc1ccc(N*)cc1; Morpholine(3S-CO) = O=C(O)[C@@H]1COCCN1; Pro(4S-Me) = C[C@@H]1CN[C@H](C(=O)O)C1; Pro(4R-Me) = C[C@H]1CN[C@H](C(=O)O)C1; NH(3,4-Me2-phenyl) = Cc1ccc(N*)cc1C; Hyp = O=C(O)[C@@H]1C[C@@H](O)CN1; NH(4-Et-phenyl) = CCc1ccc(N*)cc1; NMeT = CN[C@H](C(=O)O)[C@@H](C)O; NH(4-Me-phenyl) = Cc1ccc(N*)cc1; aThr = C[C@H](O)[C@H](N)C(=O)O; Pip = O=C(O)[C@@H]1CCCCN1; X1 = N#Cc1cc(N*)ccc1F; CO = O=C([*:1])[*:2]

Target: T1, Sa-ClpP (Staphylococcus aureus, UniProt Q2G036)
T1 construct: made in house; host or cells: E. coli BL21(DE3)
T1 sequence (Q2G036 1-195): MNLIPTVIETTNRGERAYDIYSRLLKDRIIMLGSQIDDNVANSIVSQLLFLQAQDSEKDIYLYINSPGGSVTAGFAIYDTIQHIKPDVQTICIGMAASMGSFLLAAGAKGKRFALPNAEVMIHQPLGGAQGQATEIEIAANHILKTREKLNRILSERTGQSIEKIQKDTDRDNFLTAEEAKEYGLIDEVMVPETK
Assay: ADEP displacement fluorescence polarization assay (FP probe ADEP 2591)
Format: binding
Description: A fluorescence polarization (FP) assay was used to determine the activity of the disclosed compounds in displacing an ADEP analogue from ClpP. Briefly, the assay was performed in black 384 well, flat bottom, low volume plates (Greiner Bio-One, Monroe, N.C., catalog #784076). 20 μL of a pre-equilibrated (1 hr, room temperature) master mix (15 μM Sa-ClpP, 2% DMSO (v/v) and 50 nM FP probe in Tris*HCl, pH 8.0)) was pipetted into each well using a Well-Mate (Thermo Scientific, Waltham, Mass.). Sa-ClpP was prepared as described above for the ClpP activation assay. The FP probe was ADEP 2591 (structure shown above). The ADEP 2591 comprises a TAMRA fluorophore linked to a core based on modified ADEP 2378 via a short alkyl linker. Using pin transfer, approximately 0.4 μL (2% v/v DMSO) of each compound or control was added per well. After addition of compounds and controls, plates were allowed to incubate for an additional 120 minutes at room temperature. All assays were performed in triplicate. Polarization was monitored using an EnVision Multilabel reader (Perkin-Elmer, Waltham, Mass.) by exciting the FP probe at 530±25 nm, and monitoring fluorescence intensity of both parallel and perpendicular polarized light at 579±25 nm. Readout was in millipolarization units (mP).
Data collected was normalized to values obtained from positive (200 μM ADEP 2378) or negative (DMSO) controls. Curves were fit with non-linear regression using the equation “log [inhibitor] vs. Response-variable slope (four parameters)-symmetrical” in the program Prism 6 (GraphPad Software, La Jolla, Calif. USA, www.graphpad.com). The structures for ADEP 2378 and ADEP 2591 are shown above. ADEP 2378 is (E)-N—((S)-1-(((2R,6S,8aS,14aS,20S,23aS)-2,6-dimethyl-5,8,14,19,23-pentaoxooctadecahydro-1H,5H,14H,19H-pyrido[2,1-i]dipyrrolo[2,1-c:2′,1′-1][1]oxa[4,7,10,13]tetraazacyclohexadecin-20-yl)amino)-1-oxo-3-phenylpropan-2-yl)pent-2-enamide. ADEP 2591 is 5-(3-(3-((6S,9S,11aS,17S,20aS)-6,10-dimethyl-5,8,11,16,20-pentaoxo-17-((S)-2-((E)-pent-2-enamido)-3-phenylpropanamido)hexadecahydro-1H,5H,16H-dipyrrolo[2,1-c:2′,1′-1][1]oxa[4,7,10,13]tetraazacyclohexadecin-9-yl)propyl)thioureido)-2-(6-(dimethylamino)-3-(dimethyliminio)-3H-xanthen-9-yl)benzoate.

Row | SMILES | IC50 [µM]
1 | C[C@H]1C[C@H]2C(=O)O[C@@H](C)[C@H](NC(=O)[C@H](Cc3cc(F)cc(F)c3)NC(=O)Nc3ccc(OC(F)(F)F)cc3)C(=O)N3CCC[C@H]3C(=O)N(C)[C@@H]([C@@H](C)O)C(=O)N[C@@H](C)C(=O)N2C1 [Compound 36, (S)-3-(3,5-difluorophenyl)-N-((2S,6S,9S,11aS,17S,18S,20aS)-9-((R)-1-hydroxyethyl)-2,6,10,18-tetramethyl-5,8,11,16,20-pentaoxohexadecahydro-1H,5H,16H-dipyrrolo[2,1-c:2′,1′-l][1]oxa[4,7,10,13]tetraazacyclohexadecin-17-yl)-2-(3-(4-(trifluoromethoxy)phenyl)ureido)propanamide] ({NH(4-OCF3-phenyl)-CO}-[Phe(3,5-F2)][aThr]P[NMeT]A[Pro(4S-Me)]; ester 2-C) | 6.4 ± 0.5
2 | C[C@@H]1C[C@H]2C(=O)OC[C@H](NC(=O)[C@H](Cc3cc(F)cc(F)c3)NC(=O)Nc3ccc4c(c3)OCO4)C(=O)N3C[C@H](O)C[C@H]3C(=O)N3CCCCC3C(=O)N[C@@H](C)C(=O)N2C1 (stereo partly drawn) [Compound 325, (S)-2-(3-(benzo[d][1,3]dioxol-5-yl)ureido)-3-(3,5-difluorophenyl)-N-((2R,6S,8aR,14aS,16R,20S,23aS)-16-hydroxy-2,6-dimethyl-5,8,14,19,23-pentaoxooctadecahydro-1H,5H,14H,19H-pyrido[2,1-i]dipyrrolo[2,1-c:2′,1′-l][1]oxa[4,7,10,13]tetraazacyclo-hexadecin-20-yl)propanamide] | 4.27 ± 0.2
3 | Cc1ccc(NC(=O)N[C@@H](Cc2cc(F)cc(F)c2)C(=O)N[C@@H]2C(=O)N3CCC[C@H]3C(=O)N(C)[C@@H]([C@@H](C)O)C(=O)N[C@@H](C)C(=O)N3C[C@@H](C)C[C@H]3C(=O)O[C@H]2C)cc1 [Compound 35, (S)-3-(3,5-difluorophenyl)-N-((2S,6S,9S,11aS,17S,18S,20aS)-9-((R)-1-hydroxyethyl)-2,6,10,18-tetramethyl-5,8,11,16,20-pentaoxohexadecahydro-1H,5H,16H-dipyrrolo[2,1-c:2′,1′-l][1]oxa[4,7,10,13]tetraazacyclohexadecin-17-yl)-2-(3-(p-tolyl)ureido)propanamide] ({NH(4-Me-phenyl)-CO}-[Phe(3,5-F2)][aThr]P[NMeT]A[Pro(4S-Me)]; ester 2-C) | 6.6 ± 0.4
4 | C[C@@H]1C[C@H]2C(=O)O[C@@H](C)[C@H](NC(=O)[C@H](Cc3cc(F)cc(F)c3)NC(=O)Nc3ccc(F)c(C#N)c3)C(=O)N3CCC[C@H]3C(=O)N3CCCC[C@H]3C(=O)N[C@@H](C)C(=O)N2C1 [Compound 324, (S)-2-(3-(3-cyano-4-fluorophenyl)ureido)-3-(3,5-difluorophenyl)-N-((2R,6S,8aS,14aS,20S,21S,23aS)-2,6,21-trimethyl-5,8,14,19,23-pentaoxooctadecahydro-1H,5H,14H,19H-pyrido[2,1-i]dipyrrolo[2,1-c:2′,1′-l][1]oxa[4,7,10,13]tetraazacyclo-hexadecin-20-yl)propanamide] ({X1-CO}-[Phe(3,5-F2)][aThr]P[Pip]A[Pro(4R-Me)]; ester 2-C) | 7.93 ± 0.3
5 | C[C@@H]1C[C@H]2C(=O)O[C@@H](C)[C@H](NC(=O)[C@H](Cc3cc(F)cc(F)c3)NC(=O)Nc3ccc(F)c(C#N)c3)C(=O)N3C[C@H](O)C[C@H]3C(=O)N3CCOC[C@H]3C(=O)N[C@@H](C)C(=O)N2C1 [Compound 326, (S)-2-(3-(3-cyano-4-fluorophenyl)ureido)-3-(3,5-difluorophenyl)-N-((6aS,8R,12S,13S,15aS,17R,21S,23aS)-8-hydroxy-13,17,21-trimethyl-6,11,15,20,23-pentaoxooctadecahydro-6H,11H,15H-[1,4]oxazino[3,4-i]dipyrrolo[2,1-c:2′,1′-l][1]oxa[4,7,10,13]tetraazacyclo-hexadecin-12-yl)propanamide] ({X1-CO}-[Phe(3,5-F2)][aThr][Hyp][Morpholine(3S-CO)]A[Pro(4R-Me)]; ester 2-C) | 7.52 ± 0.3
6 | Cc1ccc(NC(=O)N[C@@H](Cc2cc(F)cc(F)c2)C(=O)N[C@@H]2C(=O)N3C[C@H](O)C[C@H]3C(=O)N3CCOC[C@H]3C(=O)N[C@@H](C)C(=O)N3C[C@H](C)C[C@H]3C(=O)O[C@H]2C)cc1C [Compound 215, (S)-3-(3,5-difluorophenyl)-2-(3-(3,4-dimethylphenyl)ureido)-N-((6aS,8R,12S,13S,15aS,17R,21S,23aS)-8-hydroxy-13,17,21-trimethyl-6,11,15,20,23-pentaoxooctadecahydro-6H,11H,15H-[1,4]oxazino[3,4-i]dipyrrolo[2,1-c:2′,1′-l][1]oxa[4,7,10,13]tetraazacyclohexadecin-12-yl)propanamide] ({NH(3,4-Me2-phenyl)-CO}-[Phe(3,5-F2)][aThr][Hyp][Morpholine(3S-CO)]A[Pro(4R-Me)]; ester 2-C) | 6.8 ± 0.3
7 | Cc1ccc(NC(=O)N[C@@H](Cc2cc(F)cc(F)c2)C(=O)N[C@@H]2C(=O)N3CCC[C@H]3C(=O)N(C)[C@@H]([C@@H](C)O)C(=O)N[C@@H](C)C(=O)N3C[C@H](C)C[C@H]3C(=O)O[C@H]2C)cc1 [Compound 38, (S)-3-(3,5-difluorophenyl)-N-((2R,6S,9S,11aS,17S,18S,20aS)-9-((R)-1-hydroxyethyl)-2,6,10,18-tetramethyl-5,8,11,16,20-pentaoxohexadecahydro-1H,5H,16H-dipyrrolo[2,1-c:2′,1′-l][1]oxa[4,7,10,13]tetraazacyclohexadecin-17-yl)-2-(3-(p-tolyl)ureido)propanamide] ({NH(4-Me-phenyl)-CO}-[Phe(3,5-F2)][aThr]P[NMeT]A[Pro(4R-Me)]; ester 2-C) | 6.52 ± 0.3
8 | CCc1ccc(NC(=O)N[C@@H](Cc2cc(F)cc(F)c2)C(=O)N[C@@H]2C(=O)N3CCC[C@H]3C(=O)N(C)[C@@H]([C@@H](C)O)C(=O)N[C@@H](C)C(=O)N3C[C@H](C)C[C@H]3C(=O)O[C@H]2C)cc1 [Compound 42, (S)-3-(3,5-difluorophenyl)-2-(3-(4-ethylphenyl)ureido)-N-((2R,6S,9S,11aS,17S,18S,20aS)-9-((R)-1-hydroxyethyl)-2,6,10,18-tetramethyl-5,8,11,16,20-pentaoxohexadecahydro-1H,5H,16H-dipyrrolo[2,1-c:2′,1′-l][1]oxa[4,7,10,13]tetraazacyclohexadecin-17-yl)propanamide] ({NH(4-Et-phenyl)-CO}-[Phe(3,5-F2)][aThr]P[NMeT]A[Pro(4R-Me)]; ester 2-C) | 7.12 ± 0.2
9 | C[C@@H]1C[C@H]2C(=O)OC[C@H](NC(=O)[C@H](Cc3cc(F)cc(F)c3)NC(=O)Nc3ccc4c(c3)OCO4)C(=O)N3CCC[C@H]3C(=O)N3CCCC[C@H]3C(=O)N[C@@H](C)C(=O)N2C1 [Compound 195, (S)-2-(3-(benzo[d][1,3]dioxol-5-yl)ureido)-3-(3,5-difluorophenyl)-N-((2R,6S,8aS,14aS,20S,23aS)-2,6-dimethyl-5,8,14,19,23-pentaoxooctadecahydro-1H,5H,14H,19H-pyrido[2,1-i]dipyrrolo[2,1-c:2′,1′-l][1]oxa[4,7,10,13]tetraazacyclohexadecin-20-yl)propanamide] | 5.8 ± 0.2
10 | Cc1ccc(NC(=O)N[C@@H](Cc2cc(F)cc(F)c2)C(=O)N[C@@H]2C(=O)N3CCC[C@H]3C(=O)N(C)[C@@H]([C@@H](C)OP(=O)(O)O)C(=O)N[C@@H](C)C(=O)N3C[C@@H](C)C[C@H]3C(=O)O[C@H]2C)cc1 [Compound 188, (R)-1-((2S,6S,9S,11aS,17S,18S,20aS)-17-((S)-3-(3,5-difluorophenyl)-2-(3-(p-tolyl)ureido)propanamido)-2,6,10,18-tetramethyl-5,8,11,16,20-pentaoxohexadecahydro-1H,5H,16H-dipyrrolo[2,1-c:2′,1′-l][1]oxa[4,7,10,13]tetraazacyclohexadecin-9-yl)ethyl dihydrogen phosphate] ({NH(4-Me-phenyl)-CO}-[Phe(3,5-F2)][aThr]P[NMepT]A[Pro(4S-Me)]; ester 2-C) | 13.7 ± 0.6
11 | Cc1ccc(NC(=O)N[C@@H](Cc2cc(F)cc(F)c2)C(=O)N[C@H]2COC(=O)[C@@H]3C[C@@H](C)CN3C(=O)[C@H](C)NC(=O)C3CCCCN3C(=O)[C@@H]3C[C@@H](O)CN3C2=O)cc1 (stereo partly drawn) [Compound 323, (S)-3-(3,5-difluorophenyl)-N-((2R,6S,8aR,14aS,16R,20S,23aS)-16-hydroxy-2,6-dimethyl-5,8,14,19,23-pentaoxooctadecahydro-1H,5H,14H,19H-pyrido[2,1-i]dipyrrolo[2,1-c:2′,1′-l][1]oxa[4,7,10,13]tetraazacyclohexadecin-20-yl)-2-(3-(p-tolyl)ureido)propanamide] | 9.18 ± 0.4
